Test results: US10112937B2, “P2X7 modulators and methods of use” (Janssen Pharmaceutica NV, priority 2013, dated 2018)

Biological target: human P2X7 (Homo sapiens (Human), UniProt Q99572)
Assay: P2X7 antagonism in human PBMCs (IL-1β release after LPS + Bz-ATP, ELISA)
Type: cell-based
Conditions: for PBMC 10 μM (% control): test compound 10 μM

human P2X7, sequence (Q99572 whole entry): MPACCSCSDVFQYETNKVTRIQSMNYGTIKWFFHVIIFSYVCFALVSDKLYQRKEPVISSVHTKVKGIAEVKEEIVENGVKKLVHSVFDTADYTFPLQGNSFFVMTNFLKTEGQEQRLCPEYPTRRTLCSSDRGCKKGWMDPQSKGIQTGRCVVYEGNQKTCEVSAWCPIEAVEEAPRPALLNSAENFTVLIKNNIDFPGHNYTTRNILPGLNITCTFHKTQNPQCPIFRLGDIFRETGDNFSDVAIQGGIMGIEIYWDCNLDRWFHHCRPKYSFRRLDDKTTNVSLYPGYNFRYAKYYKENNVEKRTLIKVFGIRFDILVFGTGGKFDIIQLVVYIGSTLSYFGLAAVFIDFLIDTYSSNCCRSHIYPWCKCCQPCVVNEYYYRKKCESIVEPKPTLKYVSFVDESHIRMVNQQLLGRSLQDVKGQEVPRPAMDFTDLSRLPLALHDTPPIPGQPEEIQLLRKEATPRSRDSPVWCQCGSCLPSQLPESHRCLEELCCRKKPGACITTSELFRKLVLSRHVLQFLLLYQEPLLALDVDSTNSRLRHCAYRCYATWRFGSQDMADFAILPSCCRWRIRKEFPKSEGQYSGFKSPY

| SMILES | PBMC 10 μM (% control) (human PBMCs) | PBMC 1 μM (% control) (human PBMCs, test compound 1 μM) | PBMC 10 μM (% control) (LPS 30 ng/ml + 0.5 mM Bz-ATP) |
| --- | --- | --- | --- |
| CC1c2ncn(-c3ccccn3)c2CCN1C(=O)c1cccc(C(F)(F)F)c1F (single isomer, unassigned) [Example 42, (4R*)-5-{[2-Fluoro-3-(trifluoromethyl)phenyl]carbonyl}-4-methyl-1-pyridin-2-yl-4,5,6,7-tetrahydro-1H-imidazo[4,5-c]pyridine] | 5.8 % control | – | 5.8 % control |
| C[C@@H]1c2ncn(-c3ccc(F)cc3)c2CCN1C(=O)c1cccc(C(F)(F)F)c1Cl (single isomer, unassigned) [Example 46, (4R*)-5-{[2-Chloro-3-(trifluoromethyl)phenyl]carbonyl}-1-(4-fluorophenyl)-4-methyl-4,5,6,7-tetrahydro-1H-imidazo[4,5-c]pyridine] | 2.1 % control | – | 2.1 % control |
| C[C@H]1c2ncn(-c3ccc(F)cc3)c2CCN1C(=O)c1cccc(C(F)(F)F)c1Cl (single isomer, unassigned) [Example 47] | −1.1 % control | – | – |
| C[C@H]1c2nnn(-c3ncccn3)c2CCN1C(=O)c1cccc(C(F)(F)F)c1Cl (single isomer, unassigned) [Example 87, (4S*)-5-{[2-Chloro-3-(trifluoromethyl)phenyl]carbonyl}-4-methyl-1-pyrimidin-2-yl-4,5,6,7-tetrahydro-1H-[1,2,3]triazolo[4,5-c]pyridine] | 3.3 % control | – | – |
| CC1c2nnn(-c3ncccn3)c2CCN1C(=O)c1cccc(C(F)(F)F)c1Cl (single isomer, unassigned) [Example 88, (4R*)-5-{[2-Chloro-3-(trifluoromethyl)phenyl]carbonyl}-4-methyl-1-pyrimidin-2-yl-4,5,6,7-tetrahydro-1H-[1,2,3]triazolo[4,5-c]pyridine] | 18.2 % control | – | – |
| C[C@@H]1c2nnn(-c3cnccn3)c2CCN1C(=O)c1ccc(F)c(Cl)c1Cl (single isomer, unassigned) [Example 143, (R*)-(2,3-Dichloro-4-fluorophenyl)(4-methyl-1-(pyrazin-2-yl)-6,7-dihydro-1H-[1,2,3]triazolo[4,5-c]pyridin-5(4H)-yl)methanone] | 58.0 % control | – | – |
| C[C@H]1c2nnn(-c3cccc(F)n3)c2CCN1C(=O)c1cccc(C(F)(F)F)c1Cl (single isomer, unassigned) [Example 147, (S*)-(2-Chloro-3-(trifluoromethyl)phenyl)(1-(6-fluoropyridin-2-yl)-4-methyl-6,7-dihydro-1H-[1,2,3]triazolo[4,5-c]pyridin-5(4H)-yl)methanone] | −8.9 % control | – | – |
| C[C@@H]1c2nnn(-c3cc(F)ccn3)c2CCN1C(=O)c1cccc(C(F)(F)F)c1Cl (single isomer, unassigned) [Example 148, (R*)-(2-Chloro-3-(trifluoromethyl)phenyl)(1-(4-fluoropyridin-2-yl)-4-methyl-6,7-dihydro-1H-[1,2,3]triazolo[4,5-c]pyridin-5(4H)-yl)methanone] | −9.6 % control | – | – |
| C[C@H]1c2nnn(-c3ncc(F)cn3)c2CCN1C(=O)c1cccc(C(F)(F)F)c1Cl (single isomer, unassigned) [Example 157, (S*)-(2-Chloro-3-(trifluoromethyl)phenyl)(1-(5-fluoropyrimidin-2-yl)-4-methyl-6,7-dihydro-1H-[1,2,3]triazolo[4,5-c]pyridin-5(4H)-yl)methanone] | −1.4 % control | – | – |
| C[C@@H]1Cc2c(nnn2-c2ncccc2F)CN1C(=O)c1cccc(C(F)(F)F)c1Cl (single isomer, unassigned) [Example 167, (6R*)-5-{[2-Chloro-3-(trifluoromethyl)phenyl]carbonyl}-1-(3-fluoropyridin-2-yl)-6-methyl-4,5,6,7-tetrahydro-1H-[1,2,3]triazolo[4,5-c]pyridine] | 4.2 % control | – | – |
| C[C@H]1Cc2c(nnn2-c2ncccc2F)CN1C(=O)c1cccc(C(F)(F)F)c1Cl (single isomer, unassigned) [Example 168, (6S*)-5-{[2-Chloro-3-(trifluoromethyl)phenyl]carbonyl}-1-(3-fluoropyridin-2-yl)-6-methyl-4,5,6,7-tetrahydro-1H-[1,2,3]triazolo[4,5-c]pyridine] | −4.2 % control | – | – |
| C[C@@H]1c2nnn(-c3ccn(C)n3)c2CCN1C(=O)c1cccc(C(F)(F)F)c1Cl (single isomer, unassigned) [Example 169, (R*)-(2-Chloro-3-(trifluoromethyl)phenyl)(4-methyl-1-(1-methyl-1H-pyrazol-3-yl)-6,7-dihydro-1H-[1,2,3]triazolo[4,5-c]pyridin-5(4H)-yl)methanone] | 95.0 % control | – | – |

Further lines, with some results ahead:

| PBMC 10 μM (% control) (human PBMCs) | PBMC 1 μM (% control) (human PBMCs, test compound 1 μM) | SMILES | PBMC 10 μM (% control) (LPS 30 ng/ml + 0.5 mM Bz-ATP) |
| --- | --- | --- | --- |
| −0.3 % control | 5.2 % control | C[C@H]1c2nnn(-c3cnccn3)c2CCN1C(=O)c1cccc(C(F)(F)F)c1Cl (single isomer, unassigned) [Example 75, (4S*)-5-{[2-Chloro-3-(trifluoromethyl)phenyl]carbonyl}-4-methyl-1-pyrazin-2-yl-4,5,6,7-tetrahydro-1H-[1,2,3]triazolo[4,5-c]pyridine] | – |
| 20.0 % control | – | C[C@@H]1Cc2c(nnn2-c2ccccn2)CN1C(=O)c1cccc(C(F)(F)F)c1Cl (single isomer, unassigned) [Example 119, 5-{[2-Chloro-3-(trifluoromethyl)phenyl]carbonyl}-(R*)-6-methyl-1-pyridin-2-yl-4,5,6,7-tetrahydro-1H-[1,2,3]triazolo[4,5-c]pyridine] | – |
| −0.2 % control | – | C[C@@H]1c2nnn(-c3cc[nH]n3)c2CCN1C(=O)c1cccc(C(F)(F)F)c1Cl (single isomer, unassigned) [Example 133, (R*)-(2-Chloro-3-(trifluoromethyl)phenyl)(4-methyl-1-(1H-pyrazol-5-yl)-6,7-dihydro-1H-[1,2,3]triazolo[4,5-c]pyridin-5(4H)-yl)methanone] | – |
| 3.5 % control | – | C[C@H]1c2nnn(-c3cc(F)ccn3)c2CCN1C(=O)c1cccc(C(F)(F)F)c1Cl (single isomer, unassigned) [Example 149, (S*)-(2-Chloro-3-(trifluoromethyl)phenyl)(1-(4-fluoropyridin-2-yl)-4-methyl-6,7-dihydro-1H-[1,2,3]triazolo[4,5-c]pyridin-5(4H)-yl)methanone] | – |
| 0.6 % control | – | C[C@H]1Cc2c(nnn2-c2ncccc2F)CN1C(=O)c1cccc(Cl)c1Cl (single isomer, unassigned) [Example 166, (6S*)-5-[(2,3-Dichlorophenyl)carbonyl]-1-(3-fluoropyridin-2-yl)-6-methyl-4,5,6,7-tetrahydro-1H-[1,2,3]triazolo[4,5-c]pyridine] | – |
| −5.7 % control | – | C[C@H]1c2nnn(-c3ccn(C)n3)c2CCN1C(=O)c1cccc(C(F)(F)F)c1Cl (single isomer, unassigned) [Example 170, (S*)-(2-Chloro-3-(trifluoromethyl)phenyl)(4-methyl-1-(1-methyl-1H-pyrazol-3-yl)-6,7-dihydro-1H-[1,2,3]triazolo[4,5-c]pyridin-5(4H)-yl)methanone] | – |
| −6.0 % control | – | C[C@H]1c2nnn(-c3ccn(CCF)n3)c2CCN1C(=O)c1cccc(C(F)(F)F)c1Cl (single isomer, unassigned) [Example 172, (S*)-(2-Chloro-3-(trifluoromethyl)phenyl)(1-(1-(2-fluoroethyl)-1H-pyrazol-3-yl)-4-methyl-6,7-dihydro-1H-[1,2,3]triazolo[4,5-c]pyridin-5(4H)-yl)methanone] | – |
